Reference: patent publication US7718808B2, “Thiazole derivatives” (Kyowa Hakko Kirin Co., Ltd., priority 2003, dated 2010)

Row | melting point | Structure (SMILES)
1 | 151 to 153 °C | CC1(O)CCN(CC(=O)Nc2nc(-c3ccco3)c(C(=O)C3CCOCC3)s2)CC1 [Compound 546, N-[4-(2-Furyl)-5-(tetrahydropyran-4-ylcarbonyl)thiazol-2-yl]-2-(4-hydroxy-4-methylpiperidino)acetamide]
2 | 183 to 184 °C | O=C(CN1CCC(N2CCCC2)CC1)Nc1nc(-c2ccco2)c(C(=O)C2CCOCC2)s1 [Compound 551, N-[4-(2-Furyl)-5-(tetrahydropyran-4-ylcarbonyl)thiazol-2-yl]-2-[4-(1-pyrrolidinyl)piperidino]acetamide]
3 | 177 to 179 °C | O=C(CN1CCC(N2CCCCC2)CC1)Nc1nc(-c2ccco2)c(C(=O)C2CCOCC2)s1 [Compound 552, N-[4-(2-Furyl)-5-(tetrahydropyran-4-ylcarbonyl)thiazol-2-yl]-2-(4-piperidinopiperidino)acetamide]
4 | 193 to 195 °C | O=C(CN1CCC(N2CCOCC2)CC1)Nc1nc(-c2ccco2)c(C(=O)C2CCOCC2)s1 [Compound 553, N-[4-(2-Furyl)-5-(tetrahydropyran-4-ylcarbonyl)thiazol-2-yl]-2-(4-morpholinopiperidino)acetamide]
5 | 186 to 187 °C | O=C(CN1CCC2(CC1)OCCO2)Nc1nc(-c2ccco2)c(C(=O)C2CCOCC2)s1 [Compound 554, 2-(1,4-Dioxa-8-azaspiro[4.5]decan-8-yl)-N-[4-(2-furyl)-5-(tetrahydropyran-4-ylcarbonyl)thiazol-2-yl]acetamide]
6 | 106 to 112 °C | CN1CCN(CC(=O)Nc2nc(-c3ccco3)c(C(=O)C3CCOCC3)s2)CC1 [Compound 562, N-[4-(2-Furyl)-5-(tetrahydropyran-4-ylcarbonyl)thiazol-2-yl]-2-(4-methylpiperazin-1-yl)acetamide]
7 | 106 to 108 °C | CC(C)(O)CN1CCN(CC(=O)Nc2nc(-c3ccco3)c(C(=O)C3CCOCC3)s2)CC1 [Compound 565, N-[4-(2-Furyl)-5-(tetrahydropyran-4-ylcarbonyl)thiazol-2-yl]-2-[4-(2-hydroxy-2-methylpropyl)piperazin-1-yl]acetamide]
8 | 155 to 157 °C | COC1(CN2CCN(CC(=O)Nc3nc(-c4ccco4)c(C(=O)C4CCOCC4)s3)CC2)CC1 [Compound 567, N-[4-(2-Furyl)-5-(tetrahydropyran-4-ylcarbonyl)thiazol-2-yl]-2-{4-[(1-methoxycyclopropyl)methyl]piperazin-1-yl}acetamide]
9 | 94 to 96 °C | CN1CCCN(CC(=O)Nc2nc(-c3ccco3)c(C(=O)C3CCOCC3)s2)CC1 [Compound 576, N-[4-(2-Furyl)-5-(tetrahydropyran-4-ylcarbonyl)thiazol-2-yl]-2-(4-methyl-1,4-diazepan-1-yl)acetamide]
10 | 168 to 170 °C | O=C(CNC12CC3CC(CC(C3)C1)C2)Nc1nc(-c2ccco2)c(C(=O)C2CCOCC2)s1 [Compound 577, N-[4-(2-Furyl)-5-(tetrahydropyran-4-ylcarbonyl)thiazol-2-yl]-2-(adamantan-1-ylamino)acetamide]
11 | 176 to 178 °C | O=C(CNC12CC3CC(CC(O)(C3)C1)C2)Nc1nc(-c2ccco2)c(C(=O)C2CCOCC2)s1 [Compound 578, N-[4-(2-Furyl)-5-(tetrahydropyran-4-ylcarbonyl)thiazol-2-yl]-2-(3-hydroxyadamantan-1-ylamino)acetamide]
12 | 152 to 153 °C | CCOC(=O)Nc1nc(-c2ccco2)c(C(=O)C2CCOCC2)s1 [Compound 581, Ethyl N-[4-(2-furyl)-5-(tetrahydropyran-4-ylcarbonyl)thiazol-2-yl]carbamate]
13 | 231 to 232 °C | O=C(Nc1nc(-c2ccoc2)c(C(=O)C2CCOCC2)s1)C1CC1 [Compound 611, N-[4-(3-Furyl)-5-(tetrahydropyran-4-ylcarbonyl)thiazol-2-yl]cyclopropanecarboxamide]

The remaining lines, values behind:

Row | Structure (SMILES) | melting point
14 | O=C(Nc1nc(-c2ccco2)c(C(=O)C2CCSCC2)s1)c1ccncc1 [Compound 589, N-[4-(2-Furyl)-5-(tetrahydrothiopyran-4-ylcarbonyl)thiazol-2-yl]pyridine-4-carboxamide] | 203 to 210 °C
15 | Cc1ccc(-c2nc(NC(=O)c3ccncc3)sc2-c2ccncc2)o1 [Compound 601, N-[4-(5-Methylfuran-2-yl)-5-(4-pyridyl)thiazol-2-yl]pyridine-4-carboxamide] | 274 to 276 °C
16 | Cc1ccoc1-c1nc(NC(=O)c2ccncc2)sc1-c1ccncc1 [Compound 602, N-[4-(3-Methylfuran-2-yl)-5-(4-pyridyl)thiazol-2-yl]pyridine-4-carboxamide] | 254 to 257 °C
17 | O=C(Nc1nc(-c2occc2-c2ccccc2)c(-c2ccncc2)s1)c1ccncc1 [Compound 603, N-[4-(3-Phenylfuran-2-yl)-5-(4-pyridyl)thiazol-2-yl]pyridine-4-carboxamide] | 190 to 192 °C
18 | O=C(Nc1nc(-c2ccoc2)c(-c2ccncc2)s1)c1ccncc1 [Compound 605, N-[4-(3-Furyl)-5-(4-pyridyl)thiazol-2-yl]pyridine-4-carboxamide] | 251 to 254 °C
19 | O=C(Nc1nc(-c2ccoc2)c(C(=O)c2ccccn2)s1)c1ccncc1 [Compound 608, N-[4-(3-Furyl)-5-(pyridin-2-ylcarbonyl)thiazol-2-yl]pyridine-4-carboxamide] | 264 to 266 °C
20 | O=C(Nc1nc(-c2ccoc2)c(C(=O)C2CCOCC2)s1)c1ccc(Cl)nc1 [Compound 612, 2-Chloro-N-[4-(3-furyl)-5-(tetrahydropyran-4-ylcarbonyl)thiazol-2-yl]pyridine-5-carboxamide] | 237 to 239 °C
21 | Cc1cncc(C(=O)Nc2nc(-c3ccoc3)c(C(=O)C3CCOCC3)s2)c1 [Compound 613, N-[4-(3-Furyl)-5-(tetrahydropyran-4-ylcarbonyl)thiazol-2-yl]-5-methylpyridine-3-carboxamide] | 244 to 246 °C
22 | Cc1ccc(C(=O)Nc2nc(-c3ccoc3)c(C(=O)C3CCOCC3)s2)cn1 [Compound 614, N-[4-(3-Furyl)-5-(tetrahydropyran-4-ylcarbonyl)thiazol-2-yl]-2-methylpyridine-5-carboxamide] | 217 to 219 °C
23 | Cc1cc(C(=O)Nc2nc(-c3ccoc3)c(C(=O)C3CCOCC3)s2)ccn1 [Compound 615, N-[4-(3-Furyl)-5-(tetrahydropyran-4-ylcarbonyl)thiazol-2-yl]-2-methylpyridine-4-carboxamide] | 202 to 204 °C
24 | O=C(Nc1nc(-c2ccoc2)c(C(=O)C2CCOCC2)s1)c1ccnc(Cl)c1 [Compound 616, 2-Chloro-N-[4-(3-furyl)-5-(tetrahydropyran-4-ylcarbonyl)thiazol-2-yl]pyridine-4-carboxamide] | 202 to 204 °C
25 | O=C(Cc1cccnc1)Nc1nc(-c2ccoc2)c(C(=O)C2CCOCC2)s1 [Compound 618, N-[4-(3-Furyl)-5-(tetrahydropyran-4-ylcarbonyl)thiazol-2-yl]-2-(3-pyridyl)acetamide] | 195 to 197 °C
26 | COc1cccc(C(=O)Nc2nc(-c3ccoc3)c(C(=O)C3CCOCC3)s2)c1 [Compound 619, N-[4-(3-Furyl)-5-(tetrahydropyran-4-ylcarbonyl)thiazol-2-yl]-3-methoxybenzamide] | 194 to 196 °C
